Legend:
Assay in all cases: In vitro MIC, 2010 surveillance isolates
E. coli ESBL− = format: cell-based, Escherichia coli
E. coli ESBL+ = format: cell-based, Escherichia coli
K. pneumoniae ESBL− = format: cell-based, Klebsiella pneumoniae
K. pneumoniae ESBL+ = format: cell-based, Klebsiella pneumoniae
K. oxytoca = format: cell-based
E. cloacae CeftazS = format: cell-based
E. cloacae CeftazR = format: cell-based
Enterobacter spp = format: cell-based
A. baumanii = format: cell-based; conditions: for % R (resistance): CLSI breakpoints
Acinetobacter spp = format: cell-based; conditions: for % R (resistance): CLSI breakpoints
MSSA = format: cell-based
MRSA = format: cell-based
MS CoNS = format: cell-based, Coagulase-Negative Staphylococcus
MR CoNS = format: cell-based, Coagulase-Negative Staphylococcus
E. faecalis VS = format: cell-based
E. faecalis VNS = format: cell-based
E. faecium VS = format: cell-based
E. faecium VNS = format: cell-based

piperacillin-tazobactam [Pip/tazo] was tested, and the “% R (resistance)” value (E. coli ESBL−; Asia/Pac, Eucast breakpoints) was 2.5%, the MIC90 (E. coli ESBL−; Asia/Pac, N=282) was 4 µg/mL and the “% R (resistance)” value (E. coli ESBL−; Europe, Eucast breakpoints) was 5.3%. For the same substance, the MIC90 (E. coli ESBL−; Europe, N=1533) was 4 µg/mL, the “% R (resistance)” value (E. coli ESBL−; L. Amer, CLSI breakpoints) was 1.5% and the MIC90 (E. coli ESBL−; L. Amer, N=389) was 4 µg/mL. The “% R (resistance)” value (E. coli ESBL−; N America, CLSI breakpoints) was 0.9%, the MIC90 (E. coli ESBL−; N America, N=1172) was 4 µg/mL and the “% R (resistance)” value (E. coli ESBL+; Asia/Pac, Eucast breakpoints) was 7.3%. For the same substance, the MIC90 (E. coli ESBL+; Asia/Pac, N=219) was 16 µg/mL, the “% R (resistance)” value (E. coli ESBL+; Europe, Eucast breakpoints) was 24.1% and the MIC90 (E. coli ESBL+; Europe, N=274) was greater than 64 µg/mL. The “% R (resistance)” value (E. coli ESBL+; L. Amer, CLSI breakpoints) was 7.7%, the MIC90 (E. coli ESBL+; L. Amer, N=168) was 64 µg/mL and the “% R (resistance)” value (E. coli ESBL+; N America, CLSI breakpoints) was 6%. For the same substance, the MIC90 (E. coli ESBL+; N America, N=134) was 64 µg/mL, the “% R (resistance)” value (K. pneumoniae ESBL−; Asia/Pac, Eucast breakpoints) was 2.1% and the MIC90 (K. pneumoniae ESBL−; Asia/Pac, N=189) was 8 µg/mL. For the same substance, the “% R (resistance)” value (K. pneumoniae ESBL−; Europe, Eucast breakpoints) was 0%, the MIC90 (K. pneumoniae ESBL−; Europe, N=361) was 8 µg/mL and the “% R (resistance)” value (K. pneumoniae ESBL−; L. Amer, CLSI breakpoints) was 1.9%. For the same substance, the MIC90 (K. pneumoniae ESBL−; L. Amer, N=160) was 4 µg/mL, the “% R (resistance)” value (K. pneumoniae ESBL−; N America, CLSI breakpoints) was 0.7% and the MIC90 (K. pneumoniae ESBL−; N America, N=671) was 8 µg/mL. For the same substance, the “% R (resistance)” value (K. pneumoniae ESBL+; Asia/Pac, Eucast breakpoints) was 47.6%, the MIC90 (K. pneumoniae ESBL+; Asia/Pac, N=124) was greater than 64 µg/mL and the “% R (resistance)” value (K. pneumoniae ESBL+; Europe, Eucast breakpoints) was 57%. For the same substance, the MIC90 (K. pneumoniae ESBL+; Europe, N=151) was greater than 64 µg/mL, the “% R (resistance)” value (K. pneumoniae ESBL+; L. Amer, CLSI breakpoints) was 51.7% and the MIC90 (K. pneumoniae ESBL+; L. Amer, N=209) was greater than 64 µg/mL. The “% R (resistance)” value (K. pneumoniae ESBL+; N America, CLSI breakpoints) was 51.9%, the MIC90 (K. pneumoniae ESBL+; N America, N=108) was greater than 64 µg/mL and the “% R (resistance)” value (K. oxytoca; Asia/Pac, Eucast breakpoints) was 17.6%. For the same substance, the MIC90 (K. oxytoca; Asia/Pac, N=17) was 64 µg/mL, the “% R (resistance)” value (K. oxytoca; Europe, Eucast breakpoints) was 13.3% and the MIC90 (K. oxytoca; Europe, N=158) was greater than 64 µg/mL. For the same substance, the “% R (resistance)” value (K. oxytoca; L. Amer, CLSI breakpoints) was 16%, the MIC90 (K. oxytoca; L. Amer, N=25) was greater than 64 µg/mL and the “% R (resistance)” value (K. oxytoca; N America, CLSI breakpoints) was 7.9%. For the same substance, the MIC90 (K. oxytoca; N America, N=177) was 16 µg/mL, the “% R (resistance)” value (E. cloacae CeftazS; Asia/Pac, Eucast breakpoints) was 1% and the MIC90 (E. cloacae CeftazS; Asia/Pac, N=100) was 4 µg/mL. For the same substance, the “% R (resistance)” value (E. cloacae CeftazS; Europe, Eucast breakpoints) was 1.1%, the MIC90 (E. cloacae CeftazS; Europe, N=183) was 4 µg/mL and the “% R (resistance)” value (E. cloacae CeftazS; L. Amer, CLSI breakpoints) was 3.5%. The MIC90 (E. cloacae CeftazS; L. Amer, N=57) was 16 µg/mL, the “% R (resistance)” value (E. cloacae CeftazS; N America, CLSI breakpoints) was 0.5% and the MIC90 (E. cloacae CeftazS; N America, N=210) was 4 µg/mL. The “% R (resistance)” value (E. cloacae CeftazR; Asia/Pac, Eucast breakpoints) was 55.6%, the MIC90 (E. cloacae CeftazR; Asia/Pac, N=63) was greater than 64 µg/mL and the “% R (resistance)” value (E. cloacae CeftazR; Europe, Eucast breakpoints) was 62.5%. For the same substance, the MIC90 (E. cloacae CeftazR; Europe, N=72) was greater than 64 µg/mL, the “% R (resistance)” value (E. cloacae CeftazR; L. Amer, CLSI breakpoints) was 23.8% and the MIC90 (E. cloacae CeftazR; L. Amer, N=42) was greater than 64 µg/mL. For the same substance, the “% R (resistance)” value (E. cloacae CeftazR; N America, CLSI breakpoints) was 48.1%, the MIC90 (E. cloacae CeftazR; N America, N=77) was greater than 64 µg/mL and the “% R (resistance)” value (Enterobacter spp; Asia/Pac, Eucast breakpoints) was 19.2%. For the same substance, the MIC90 (Enterobacter spp; Asia/Pac, N=52) was 32 µg/mL, the “% R (resistance)” value (Enterobacter spp; Europe, Eucast breakpoints) was 32.9% and the MIC90 (Enterobacter spp; Europe, N=82) was 64 µg/mL. For the same substance, the “% R (resistance)” value (Enterobacter spp; L. Amer, CLSI breakpoints) was 7.1%, the MIC90 (Enterobacter spp; L. Amer, N=42) was 64 µg/mL and the “% R (resistance)” value (Enterobacter spp; N America, CLSI breakpoints) was 4%. The MIC90 (Enterobacter spp; N America, N=101) was 64 µg/mL, the MIC90 (A. baumanii; Asia/Pac, N=275) was greater than 64 µg/mL and the MIC90 (A. baumanii; Europe, N=145) was greater than 64 µg/mL. The “% R (resistance)” value (A. baumanii; L. Amer) was 88.7%, the MIC90 (A. baumanii; L. Amer, N=275) was greater than 64 µg/mL and the “% R (resistance)” value (A. baumanii; N America) was 70.1%. The MIC90 (A. baumanii; N America, N=154) was greater than 64 µg/mL, the MIC90 (Acinetobacter spp; Europe, N=43) was greater than 64 µg/mL and the “% R (resistance)” value (Acinetobacter spp; L. Amer) was 55.6%. The “% R (resistance)” value (Acinetobacter spp; N America) was 19%, the MIC90 (Acinetobacter spp; N America, N=42) was greater than 64 µg/mL and the “% R (resistance)” value (MSSA; Asia/Pac, Eucast breakpoints) was 0%. For the same substance, the MIC90 (MSSA; Asia/Pac, N=641) was 2 µg/mL, the “% R (resistance)” value (MSSA; Europe, Eucast breakpoints) was 0% and the MIC90 (MSSA; Europe, N=2109) was 2 µg/mL. For the same substance, the “% R (resistance)” value (MSSA; L. Amer, CLSI breakpoints) was 0.2%, the MIC90 (MSSA; L. Amer, N=590) was 2 µg/mL and the “% R (resistance)” value (MSSA; N America, CLSI breakpoints) was 0.1%. For the same substance, the MIC90 (MSSA; N America, N=2373) was 2 µg/mL, the “% R (resistance)” value (MRSA; Asia/Pac, Eucast breakpoints) was 100% and the MIC90 (MRSA; Asia/Pac, N=428) was greater than 64 µg/mL. For the same substance, the “% R (resistance)” value (MRSA; Europe, Eucast breakpoints) was 100%, the MIC90 (MRSA; Europe, N=750) was greater than 64 µg/mL and the “% R (resistance)” value (MRSA; L. Amer, CLSI breakpoints) was 100%. For the same substance, the MIC90 (MRSA; L. Amer, N=506) was greater than 64 µg/mL, the “% R (resistance)” value (MRSA; N America, CLSI breakpoints) was 100% and the MIC90 (MRSA; N America, N=2508) was 64 µg/mL. The “% R (resistance)” value (MS CoNS; Asia/Pac, Eucast breakpoints) was 0%, the MIC90 (MS CoNS; Asia/Pac, N=18) was 1 µg/mL and the “% R (resistance)” value (MS CoNS; Europe, Eucast breakpoints) was 0%. The MIC90 (MS CoNS; Europe, N=185) was no more than 0.5 µg/mL, the “% R (resistance)” value (MS CoNS; L. Amer, CLSI breakpoints) was 0% and the MIC90 (MS CoNS; L. Amer, N=67) was 1 µg/mL. For the same substance, the “% R (resistance)” value (MS CoNS; N America, CLSI breakpoints) was 0%, the MIC90 (MS CoNS; N America, N=191) was no more than 0.5 µg/mL and the “% R (resistance)” value (MR CoNS; Asia/Pac, Eucast breakpoints) was 100%. For the same substance, the MIC90 (MR CoNS; Asia/Pac, N=77) was greater than 64 µg/mL, the “% R (resistance)” value (MR CoNS; Europe, Eucast breakpoints) was 100% and the MIC90 (MR CoNS; Europe, N=510) was greater than 64 µg/mL. The “% R (resistance)” value (MR CoNS; L. Amer, CLSI breakpoints) was 100%, the MIC90 (MR CoNS; L. Amer, N=301) was greater than 64 µg/mL and the “% R (resistance)” value (MR CoNS; N America, CLSI breakpoints) was 100%. For the same substance, the MIC90 (MR CoNS; N America, N=461) was 16 µg/mL, the “% R (resistance)” value (E. faecalis VS; Asia/Pac, Eucast breakpoints) was 0% and the MIC90 (E. faecalis VS; Asia/Pac, N=214) was 8 µg/mL. The “% R (resistance)” value (E. faecalis VS; Europe, Eucast breakpoints) was 0%, the MIC90 (E. faecalis VS; Europe, N=669) was 8 µg/mL and the “% R (resistance)” value (E. faecalis VS; L. Amer, CLSI breakpoints) was 0%. For the same substance, the MIC90 (E. faecalis VS; L. Amer, N=290) was 8 µg/mL, the “% R (resistance)” value (E. faecalis VS; N America, CLSI breakpoints) was 0% and the MIC90 (E. faecalis VS; N America, N=863) was 8 µg/mL. For the same substance, the “range of MICs (N <10, shown instead of MIC90)” value (from here on “range of MICs”) (E. faecalis VNS; Asia/Pac, N=1) was 8, the “% R (resistance)” value (E. faecalis VNS; Europe, Eucast breakpoints) was 0% and the “range of MICs” value (E. faecalis VNS; Europe, N=8) was 4-16. For the same substance, the “% R (resistance)” value (E. faecalis VNS; L. Amer, CLSI breakpoints) was 0%, the “range of MICs” value (E. faecalis VNS; L. Amer, N=7) was 4-8 and the “% R (resistance)” value (E. faecalis VNS; N America, CLSI breakpoints) was 0%. It also gave an MIC90 (E. faecalis VNS; N America, N=38) of 8 µg/mL, an MIC90 (E. faecium VS; Asia/Pac, N=106) greater than 64 µg/mL and an MIC90 (E. faecium VS; Europe, N=303) greater than 64 µg/mL. It also gave an MIC90 (E. faecium VS; L. Amer, N=51) greater than 64 µg/mL, an MIC90 (E. faecium VS; N America, N=115) greater than 64 µg/mL and an MIC90 (E. faecium VNS; Asia/Pac, N=24) greater than 64 µg/mL. For the same substance, the MIC90 (E. faecium VNS; Europe, N=71) was greater than 64 µg/mL, the MIC90 (E. faecium VNS; L. Amer, N=41) was greater than 64 µg/mL and the MIC90 (E. faecium VNS; N America, N=478) was greater than 64 µg/mL.

From patent US10238670B2, “9-aminomethyl minocycline compounds and methods of use thereof in urinary tract infection (UTI) treatment” (Paratek Pharmaceuticals, Inc., priority 2016, dated 2019)
